Legend:
[1] = system: peptide-pulsed C1R-A01 cells; assay: In vitro CTL induction, IFN-gamma ELISPOT assay (HLA-A*0101); type: cell-based, human; conditions: CTLs from HLA-A*0101-positive donors, DCs pulsed with 20 micro-g/ml peptide, day 21, versus unpulsed C1R-A01
Excerpt: Monocyte-derived dendritic cells (DCs) were used as the antigen-presenting cell to induce a cytotoxic T lymphocyte (CTL) response against peptides presented on human leukocyte antigens (HLAs). As described in the other sections, DCs were generated in vitro (Nakahara S et al., Cancer Res 2003, 63(14): 4112-8). Specifically, peripheral-blood mononuclear cells isolated from healthy volunteers (HLA-A*0101-positive) with the Ficoll-Paque plus solution (Pharmacia) were separated by attaching to plastic tissue culture dishes (Becton Dickinson) and concentrated as a monocyte fraction. The monocyte-concentrated population was cultured in the presence of 1000 IU/ml granulocyte macrophage colony-stimulating factor (R&D System) and 1000 IU/ml interleukin (IL)-4 (R&D System) in an AIM-V medium (Invitrogen) containing 2% heat-inactivated autologous serum (AS). After seven days of culturing, the cytokine-induced DCs were pulsed with 20 micro-g/ml each of the synthesized peptides in an AIM-V medium at 37 degrees C. for three hours in the presence of 3 micro-g/ml beta 2-microglobulin. Next, these peptide-pulsed DCs were inactivated by X-ray irradiation (20 Gy), and mixed in a 1:20 ratio with autologous CD8^+ T cells obtained by positive selection using the CD8 Positive Isolation Kit (Dynal). These culture products were seeded in a 48-well plate (Corning). Each well was made to contain 1.5×10^4 peptide-pulsed DCs, 3×10^5 CD8^+ T cells and 10 ng/ml IL-7 (R&D System) in 0.5 ml of the AIM-V/2% AS medium. Three days later, these culture products were added with a final concentration of 20 IU/ml IL-2 (CHIRON). On day 7 and day 14, T cells were further stimulated with peptide-pulsed autologous DCs. The DCs were prepared every time by the same method as above. On day 21, after the third peptide stimulation, CTL activities were examined against the peptide-pulsed C1R-A01 cells (Tanaka H et al., Br J Cancer 2001, 84(1): 94-9; Umano Y et al., Br J Cancer 2001, 84(8): 1052-7; Uchida N et al., Clin Cancer Res 2004, 10(24): 8577-86; Suda T et al., Cancer Sci 2006, 97(5): 411-9; Watanabe T et al., Cancer Sci 2005, 96(8): 498-506).
To examine specific CTL activity, an IFN-gamma ELISPOT assay and an IFN-gamma ELISA were performed. Specifically, peptide-pulsed C1R-A01 cells (1×10^4 cells/well) were prepared as the stimulator cell. The induced CTLs, i.e., CTL lines and CTL clones, were used as the responder cell. The IFN-gamma ELISPOT assay and IFN-gamma ELISA were performed according to the manufacturer's manual.

[2] = system: peptide-pulsed C1R-A01 cells; assay: IFN-gamma ELISA of CTL line and CTL clone (HLA-A*0101); type: cell-based, human
Protocol: (§1) CTLs were propagated in culture using methods similar to those disclosed by Riddell et al. (Walter E A et al., N Engl J Med 1995, 333(16): 1038-44; Riddell S R et al., Nat Med 1996, 2(2): 216-23). The CTLs were co-cultured in a total of 25 ml AIM-V medium containing 5% AS and 40 ng/ml anti-CD3 antibody with two types of Mitomycin C-treated human B lymphoblastoid cell lines at 5×10^6 cells. One day after beginning of the culturing, 120 IU/ml IL-2 was added to the culture. On days 5, 8 and 11, a fresh AIM-V/5% AS medium containing 30 IU/ml IL-2 was added to the culture (Tanaka H et al., Br J Cancer 2001, 84(1): 94-9; Umano Y et al., Br J Cancer 2001, 84(8): 1052-7; Uchida N et al., Clin Cancer Res 2004, 10(24): 8577-86; Suda T et al., Cancer Sci 2006, 97(5): 411-9; Watanabe T et al., Cancer Sci 2005, 96(8): 498-506).
(§2) CTLs were seeded to make 1 or 10 cells/well in 96 round-bottomed microtiter plates (Nalge Nunc International). The CTLs were co-cultured with two types of Mitomycin C-treated human B lymphoblastoid cell lines at 1×10^4 cells in a total of 150 micro-l/well 5% AS-containing AIM-V medium with 30 ng/ml anti-CD3 antibody and 125 IU/ml IL-2. Ten days later, 50 micro-1 of IL-2 at 500 IU/ml in 5% AS-containing AIM-V medium was added to the medium. […]

[3] = system: COS7 cells transfected with DEPDC1 and HLA-A*0101; assay: Specific CTL activity against target cells expressing DEPDC1 and HLA-A*0101; type: cell-based, African green monkey; conditions: peptide-induced CTL clone
Excerpt: A cDNA encoding the open-reading frame of a target gene or HLA-A*0101 was amplified by PCR. The PCR-amplified product was cloned into an expression vector. Expression vectors were transfected using Lipofectamine 2000 (Invitrogen) following the manufacturer's recommended protocol. Two days after transfection, the transfected cells were harvested using versene (Invitrogen), and used as the stimulator cell for CTL activity assay (5×10^4 cells/well).
(§3) The CTL clone induced with DEPDC1-A01-11-44 (SEQ ID NO: 108) was investigated for its ability to recognize target cells expressing DEPDC1 and the HLA-A*0101 molecule. COS7 cells transfected with both full-length DEPDC1 and the HLA-A*0101 gene were prepared as the target cell. COS7 cells transfected with either full-length DEPDC1 or HLA-A*0101 were prepared as the control.

peptide-pulsed C1R-A11 [4] = assay: In vitro CTL induction, IFN-gamma ELISPOT assay (HLA-A*1101); type: cell-based, human; conditions: CTLs from HLA-A*1101-positive donors, DCs pulsed with 20 micro-g/ml peptide, day 21, versus unpulsed C1R-A11
Excerpt: Monocyte-derived dendritic cells (DCs) were used as the antigen-presenting cell to induce a cytotoxic T lymphocyte (CTL) response against peptides presented on human leukocyte antigens (HLAs). As described in the other sections, DCs were generated in vitro (Nakahara S et al., Cancer Res 2003, 63(14): 4112-8). Specifically, peripheral-blood mononuclear cells isolated from healthy volunteers (HLA-A*1101-positive) with the Ficoll-Paque plus solution (Pharmacia) were separated by attaching to plastic tissue culture dishes (Becton Dickinson) and concentrated as a monocyte fraction. The monocyte-concentrated population was cultured in the presence of 1000 IU/ml granulocyte macrophage colony-stimulating factor (R&D System) and 1000 IU/ml interleukin (IL)-4 (R&D System) in an AIM-V medium (Invitrogen) containing 2% heat-inactivated autologous serum (AS). After seven days of culturing, the cytokine-induced DCs were pulsed with 20 micro-g/ml each of the synthesized peptides in an AIM-V medium at 37 degrees C. for three hours in the presence of 3 micro-g/ml beta 2-microglobulin.
Next, these peptide-pulsed DCs were inactivated by X-ray irradiation (20 Gy), and mixed in a 1:20 ratio with autologous CD8^+ T cells obtained by positive selection using the CD8 Positive Isolation Kit (Dynal). These culture products were seeded in a 48-well plate (Corning). […]

peptide-pulsed C1R-A11 [5] = assay: IFN-gamma ELISA of CTL line and CTL clones (HLA-A*1101); type: cell-based, human
Protocol: as §1, with “5% AS (AIM-V/5% AS) and 40” for “5% AS and 40”, “cell lines (5×10^6 cells). One day” for “cell lines at 5×10^6 cells. One day”
as §2, with “micro-l/well AIM-V/5% AS” for “micro-l/well 5% AS-containing AIM-V”, “later,” for “later, 50 micro-1 of”, “in 50 micro-1 AIM-V/5% AS” for “in 5% AS-containing AIM-V”

[6] = system: COS7 cells transfected with DEPDC1 and HLA-A*1101; assay: Specific CTL activity against target cells expressing DEPDC1 and HLA-A*1101; type: cell-based, African green monkey; conditions: peptide-induced CTL line
Excerpt: A cDNA encoding the open-reading frame of a target gene or HLA-A*1101 was amplified by PCR. The PCR-amplified product was cloned into an expression vector. Either or both of the target gene-expressing vector and the HLA-A*1101-expressing vector were transfected into COS7 cells, which is a cell line negative for the target gene and HLA, using Lipofectamine 2000 (Invitrogen) following the manufacturer's recommended protocol. Two days after transfection, the transfected cells were harvested using versene (Invitrogen), and used as the target cell for CTL activity assay (5×10^4 cells/well).
as §3, with “line” for “clone”, “DEPDC1-A11-9-627” for “DEPDC1-A01-11-44”, “1)” for “108)”, “HLA-A*1101” for “HLA-A*0101”

FTAGEAVDWLY (a peptide derived from DEPDC1) [SEQ ID NO: 108]
peptide-specific CTL activity (IFN-gamma production, ELISPOT) [1]: potent IFN-gamma production
IFN-gamma production of CTL clone (ELISA) ([2]; CTL clone by limiting dilution, peptide-pulsed C1R-A01 cells): Potent IFN-gamma production
IFN-gamma production of the CTL line (ELISA) ([2]; CTL line from Well #8, peptide-pulsed versus unpulsed target cells): potent IFN-gamma production
CTL activity against control COS7 cells ([3]; COS7 transfected with either full-length DEPDC1 or HLA-A*0101): a significant specific CTL activity was not detected
CTL activity against COS7 cells expressing both DEPDC1 and HLA-A*0101 [3]: potent CTL activities

MSQNVDMPK [SEQ ID NO: 1]
peptide-specific CTL activity (IFN-gamma production, ELISPOT) (peptide-pulsed C1R-A11 [4]): potent IFN-gamma production
IFN-gamma production of CTL clones (ELISA) (peptide-pulsed C1R-A11 [5]; CTL clones by limiting dilution, peptide-pulsed C1R-A11 cells): Potent IFN-gamma production
IFN-gamma production of the CTL line (ELISA) (peptide-pulsed C1R-A11 [5]; CTL line from Well #4, peptide-pulsed versus unpulsed target cells): potent IFN-gamma production
CTL activity against control COS7 cells ([6]; COS7 transfected with either full-length DEPDC1 or HLA-A*1101): a significant specific CTL activity was not detected
CTL activity against COS7 cells expressing both DEPDC1 and HLA-A*1101 [6]: potent CTL activity

— patent US10676508B2, “DEPDC1-derived peptide and vaccine containing same” (OncoTherapy Science, Inc., priority 2015, dated 2020)
